What was measured:
[1] = molecular target: cetuximab Fab fragment; assay: meditope binding to cetuximab Fab; settings: meditope-binding site within the central cavity of the cetuximab Fab fragment; read-out: binding constant
Excerpt: In some examples, the meditope-binding site is a structural feature of the monoclonal antibody cetuximab. Thus, in some cases, the meditope-binding site contains residues corresponding to those within the meditope binding site of cetuximab.

[2] = modulation of self-crosslinking by free meditope, silver-stained native gel; assay type: physicochemical; settings: 1 μM free meditope, 100 nM SnAP-body variants 1, 2, 3
[3] = test system: HER2 expressing SK-OV-3-Luc ovarian xenograft; assay: efficacy in SK-OV-3-Luc ovarian xenograft subcutaneous model; assay type: in vivo, mice; settings: 20 mg/kg ip BIW, day 52 pi
Method: This study was performed to evaluate the efficacy of ADC constructs against HER2 expressing SK-OV-3-Luc ovarian xenograft subcutaneous model using both bioluminescent imaging and traditional tumor caliper measurement. Sixty-five female athymic nudes, 4 weeks old of age were obtained from Charles River. SK-OV-3-Luc cells were expanded using standard tissue culture technique. On the day of implantation, 2.5×10^6 cells in incomplete media with 30% matrigel were implanted to the right lower flank of each mouse. Animals were stratified into 7 groups of 8 mice for treatment based on the total flux (Perkin Elmer IVIS Lumina XRMS II) at day 10 pi. Animals were weighed twice weekly in conjunction with tumor measurements. Bioluminescent Imaging were performed once a week. Tumor mass were calculated using the following formula: Mass (mg)=Tumor volume (mm^3)=d^2×D/2, where d and D are the shortest and longest diameter in mm, respectively.

[4] = test system: CLL; settings: Phase I, cited from earlier work
[5] = 46 heavily pretreated CLL patients, single agent

Sequence of cetuximab Fab fragment (as listed by the source, other chains not shown): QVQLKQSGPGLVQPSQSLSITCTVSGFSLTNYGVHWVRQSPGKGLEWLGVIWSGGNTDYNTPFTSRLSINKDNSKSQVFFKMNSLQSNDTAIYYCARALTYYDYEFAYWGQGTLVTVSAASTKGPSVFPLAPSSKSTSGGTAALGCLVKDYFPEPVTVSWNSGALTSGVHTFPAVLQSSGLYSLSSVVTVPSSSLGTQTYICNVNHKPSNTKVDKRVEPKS

C-QFDLSTRRLK-C [cQFD meditope]
Kd [1]: ~0.7 µM
effect of free meditope on antibody self-crosslinking [2]: can interfere with the self-crosslinking ability of self-crosslinking antibodies

CC(=O)O[C@H]1C(=O)[C@@]2(C)[C@H]([C@H](OC(=O)c3ccccc3)[C@]3(O)C[C@H](OC(=O)[C@H](O)[C@@H](NC(=O)c4ccccc4)c4ccccc4)C(C)=C1C3(C)C)[C@]1(OC(C)=O)CO[C@@H]1C[C@@H]2O [Paclitaxel]
TGI [3]: 2.80%

lumiliximab: primatized anti-CD23 mAb that contains cynomolgus macaque variable regions and human constant regions (IgG1-κ)
objective Complete Responses (CRs) or Partial Responses (PRs) [4, 5]: no objective Complete Responses (CRs) or Partial Responses (PRs) were observed
patients with decreased peripheral blood lymphocyte counts [4, 5]: 91 % of patients
patients with reduced enlarged lymph node size [4, 5]: 52 % of patients
MTD (maximum tolerated dose) ([4]; CLL patients): not reached
adverse events (AEs) ([4]; CLL patients): majority of adverse events (AEs) are limited to grade 1/2
immunosuppression ([4]; CLL patients): not immunosuppressive
